Data published in patent US10973932B2, “Preclinical model of neonatal necrotizing enterocolitis” (University of South Florida, priority 2017, dated 2021).

B1: recombinant haptoglobin: recombinant haptoglobin, a natural chelator of free hemoglobin (protein, UniProt P00738 19-406, looked up)
Haptoglobin: VDSGNDVTDIADDGCPKPPEIAHGYVEHSVRYQCKNYYKLRTEGDGVYTLNDKKQWINKAVGDKLPECEADDGCPKPPEIAHGYVEHSVRYQCKNYYKLRTEGDGVYTLNNEKQWINKAVGDKLPECEAVCGKPKNPANPVQRILGGHLDAKGSFPWQAKMVSHHNLTTGATLINEQWLLTTAKNLFLNHSENATAKDIAPTLTLYVGKKQLVEIEKVVLHPNYSQVDIGLIKLKQKVSVNERVMPICLPSKDYAEVGRVGYVSGWGRNANFKFTDHLKYVMLPVADQDQCIRHYEGSTVPEKKTPKSPVGVQPILNEHTFCAGMSKYQEDTCYGDAGSAFAVHDLEEDTWYATGILSFDKSCAVAEYGVYVKVTSIQDWVQKTIAEN

Key:
[1] = tested on: monocytes and macrophages; experiment: Depletion of intestinal monocytes/macrophages (flow cytometry); type: in vivo, mouse; settings: CSF1R-DTR/mCherry×Lyz2-cre pups; 5 ng/g weight; FIG. 7E
Description: Flow cytometry: Macrophages were defined by flow cytometry (BD LSRII, Franklin Lakes, N.J.). Intestinal tissue was washed with Hanks' balanced-salt solution (HBSS) containing 1 mM DTT (Sigma) to remove mucus, and then treated first with HBSS containing 1 mM EDTA (Sigma)×20 min at 37° C., and then with HBSS containing 1 mM collagenase type IV (Sigma)×2 hrs at 37° C. Cell suspension was stained using established protocols with the L-D viability dye (ThermoFisher), lineage cocktail (BioLegend, San Diego, Calif.), and antibodies against CD11b, Ly6C, F4/80, Ly6G, and Ly6B (BioLegend).
Murine intestinal macrophages: Murine intestinal macrophages were isolated by immunomagnetic separation, where these cells were first stained with phycoerythrin (PE)-conjugated anti-CD11b, anti-F4/80, and anti-Ly6C antibodies and then separated using anti-PE-conjugated ferromagnetic beads (Miltenyi Biotec, San Diego, Calif.). In some experiments, monocytes and macrophages were depleted by administering clodronate liposomes (Clodrosome, Brentwood, Tenn.). A 50 mg/kg intraperitoneal dose was used and an identical dose by enema on postnatal day 8, which depleted >80% monocytes and macrophages in 72 hrs (pre-determined optimum).
These findings were confirmed using a second, more specific approach for macrophage depletion. […]

anemic-transfused mice = experiment: RBC transfusion-associated NEC-like injury in anemic-transfused mouse pups; type: in vivo
Description: Experimental design: Animal studies were approved by the Institutional Animal Care and Use Committee. C57BL/6 mice pups were studied in 4 groups: (a) naïve control; (b) transfusion control; (c) anemic control; and (d) anemic-transfused mice. Naïve controls were maintained without intervention. Transfusion controls received an intravenous RBC transfusion (20 mL/kg into the retro-orbital venous plexus, injected in 2 aliquots on each side) on postnatal day 11 (P11). RBCs for transfusion were collected in a sterile fashion from adult FVB/NJ donors after sacrifice into citrate-phosphate-dextrose-adenine-1 (CPDA-1; Sigma, St. Louis, Mo.; 6 parts blood: 1 part CPDA-1). […] Hematocrits and RBC indices were measured at each phlebotomy and then everyday on P11-13; 5 μL blood was diluted 1:20 in Cellpak reagent (Sysmex, Kobe, Japan) and analyzed in the Sysmex XT-2000iV automated veterinary hematology analyzer. […] To measure gut barrier function, FITC-dextran was administered by gavage (10 kDa, 400 mg/kg) 4 hrs before sacrifice and measured the FITC fluorescence signal in plasma samples obtained just prior to sacrifice. To measure regional blood flow, […] fluorescence-labeled microspheres were administered intravenously (15 μm, ThermoFisher, Waltham, Mass.) 1 hr before sacrifice and the fluorescence signal was measured in tissue lysates. […]

NF-κB = NF-κB reporter RAW264.7 macrophages stimulated with 7-day-stored RBCs; type: cell-based, murine; settings: haptoglobin 10 μg/mL added with 7-day RBCs; FIG. 5H

| Molecule | inflammatory F4/80mid CD115+Ly6Chi macrophages (not resident macrophages) [1] | transfusion-associated NEC-like injury (onset, severity of bowel injury) (anemic-transfused mice; CSF1R-DTR/mCherry×Lyz2-cre anemic-transfused pups, 5 ng/g weight, FIGS. 7E-7G) | transfusion-associated NEC-like injury (onset, severity of bowel injury) (anemic-transfused mice; intravenous 10 μg/g body weight 1 hr before transfusion, FIGS. 5I-5J) | inflammatory effect of 7-day-stored RBC units on macrophages (relative NF-κB activity) (NF-κB) |
| --- | --- | --- | --- | --- |
| diphtheria toxin | selectively depleted | protective | – | – |
| B1 | – | – | protective | reversed |
